Measured values as given in BindingDB's records for doi:10.1016/j.bmcl.2006.09.026 (Mediquest Therapeutics, 2006).

What follows are molecules tested against Transcription factor p65 (Human, UniProt Q04206) (assay: Inhibition of NF-kappaB in human HEK293 cells).
Sequence of Transcription factor p65 (Q04206 whole entry): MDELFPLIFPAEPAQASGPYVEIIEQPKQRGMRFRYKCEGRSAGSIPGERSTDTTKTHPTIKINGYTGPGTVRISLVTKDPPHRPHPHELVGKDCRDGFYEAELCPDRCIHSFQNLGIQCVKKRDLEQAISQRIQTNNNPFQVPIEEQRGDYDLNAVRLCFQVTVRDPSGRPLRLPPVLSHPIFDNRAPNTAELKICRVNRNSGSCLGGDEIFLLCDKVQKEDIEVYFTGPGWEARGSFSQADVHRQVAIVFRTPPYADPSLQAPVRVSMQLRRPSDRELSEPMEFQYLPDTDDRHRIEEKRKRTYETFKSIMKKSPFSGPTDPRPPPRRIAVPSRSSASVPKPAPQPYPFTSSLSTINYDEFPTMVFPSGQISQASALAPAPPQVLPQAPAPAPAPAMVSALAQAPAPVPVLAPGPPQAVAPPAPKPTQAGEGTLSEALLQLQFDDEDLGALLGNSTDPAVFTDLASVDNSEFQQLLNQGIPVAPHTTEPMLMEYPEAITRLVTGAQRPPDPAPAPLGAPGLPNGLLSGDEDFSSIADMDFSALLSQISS
CCCCCCCCCCCCCCCCCCS(=O)(=O)NCCCNCCCCNCCCN [N1-octadecanylsulfonyl-1,14-diamino-5,10-diazabutadecane] showed an IC50 of 2.1 µM.
With CCCCCCCCCCS(=O)(=O)NCCCNCCCCNCCCN [N-(3-(4-(3-aminopropylamino)butylamino)propyl)decane-1-sulfonamide] the IC50 was 0.31 µM.
CCCCCCCCCCCCS(=O)(=O)NCCCNCCCCNCCCN [N-(3-(4-(3-aminopropylamino)butylamino)propyl)dodecane-1-sulfonamide] was tested, and the IC50 was 0.34 µM.
With CCCCCCCCCCCCCCCCS(=O)(=O)NCCCNCCCCNCCCN [N-(3-(4-(3-aminopropylamino)butylamino)propyl)hexadecane-1-sulfonamide] the IC50 was 0.23 µM.
